Measurements: PubChem BioAssay (NCI)
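How tested: cells in 96-well plates exposed to compound for 48 hours at five concentrations. TGI: total growth inhibition.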 *1 amine or outer side, *2 acyl side, *3 side chain or, on linkers, in order; H or OH if unused. Where a SMILES comes first, the peptide text is derived from it. [ ]: non-standard residue; d: D form. The star is where a group is joined. X31 = CC(=O)N(C)SCC(N[*:1])C(=O)[*:2]; Fmoc = O=C(OCC1c2ccccc2-c2ccccc21)*; For = O=C*

Legend:
Test in all cases: DTP human tumour cell line panel, 48 h
SW-620 colon = test system: SW-620 colon
LOX IMVI melanoma = test system: LOX IMVI melanoma
SF-268 CNS = test system: SF-268 CNS
NCI-H460 lung = test system: NCI-H460 lung
NCI-H522 lung = test system: NCI-H522 lung
U251 CNS = test system: U251 CNS
MDA-MB-231 breast = test system: MDA-MB-231 breast
ACHN renal = test system: ACHN renal
T-47D breast = test system: T-47D breast
K-562 leukemia = test system: K-562 leukemia
A549 NSCLC = test system: A549 NSCLC
HCC-2998 colon = test system: HCC-2998 colon
MALME-3M melanoma = test system: MALME-3M melanoma
DU-145 prostate = test system: DU-145 prostate
SNB-19 CNS = test system: SNB-19 CNS
TK-10 renal = test system: TK-10 renal
HL-60(TB) leukemia = test system: HL-60(TB) leukemia
EKVX NSCLC = test system: EKVX NSCLC
HCT-116 colon = test system: HCT-116 colon
UACC-257 melanoma = test system: UACC-257 melanoma
HS 578T breast = test system: HS 578T breast
PC-3 prostate = test system: PC-3 prostate
SR leukemia = test system: SR leukemia
NCI-H23 lung = test system: NCI-H23 lung
HT29 colon = test system: HT29 colon
SN12C renal = test system: SN12C renal
HOP-62 NSCLC = test system: HOP-62 NSCLC
COLO 205 colon = test system: COLO 205 colon
SF-539 CNS = test system: SF-539 CNS
SF-295 CNS = test system: SF-295 CNS
SK-MEL-2 melanoma = test system: SK-MEL-2 melanoma
CCRF-CEM leukemia = test system: CCRF-CEM leukemia
OVCAR-8 ovarian = test system: OVCAR-8 ovarian
OVCAR-5 ovarian = test system: OVCAR-5 ovarian
RPMI-8226 leukemia = test system: RPMI-8226 leukemia
OVCAR-4 ovarian = test system: OVCAR-4 ovarian
MCF7 breast = test system: MCF7 breast
MOLT-4 leukemia = test system: MOLT-4 leukemia
MDA-N = test system: MDA-N
KM12 colon = test system: KM12 colon
IGROV1 ovarian = test system: IGROV1 ovarian
UO-31 renal = test system: UO-31 renal
HOP-92 NSCLC = test system: HOP-92 NSCLC
NCI-H226 lung = test system: NCI-H226 lung
HCT-15 colon = test system: HCT-15 colon
SK-OV-3 ovarian = test system: SK-OV-3 ovarian
M14 melanoma = test system: M14 melanoma
BT-549 breast = test system: BT-549 breast
SK-MEL-5 melanoma = test system: SK-MEL-5 melanoma
786-0 renal = test system: 786-0 renal
SNB-75 CNS = test system: SNB-75 CNS
RXF 393 renal = test system: RXF 393 renal
MDA-MB-435 = test system: MDA-MB-435
SK-MEL-28 melanoma = test system: SK-MEL-28 melanoma
OVCAR-3 ovarian = test system: OVCAR-3 ovarian
NCI/ADR-RES ovarian = test system: NCI/ADR-RES ovarian
UACC-62 melanoma = test system: UACC-62 melanoma
CAKI-1 renal = test system: CAKI-1 renal
A498 renal = test system: A498 renal

In the case of `CC(=O)N(C)SCC(NC(=O)C(Cc1ccccc1)NC(=O)OCC1c2ccccc2-c2ccccc21)C(=O)NC(Cc1ccccc1)C(=O)NC(Cc1cn(C=O)c2ccccc12)C(=O)NC(CCCCNC(=O)OCC1c2ccccc2-c2ccccc21)C(=O)NC(C(=O)NC(CSN(C)C(C)=O)C(=O)NC(C(N)=O)C(C)O)C(C)O` (configuration not stated) (Fmoc-F[X31]FW(For)K(Fmoc)T[X31]T-NH2; configuration not given here), the TGI (SW-620 colon) is reported as > 100 µM, the TGI (LOX IMVI melanoma) is reported as > 100 µM and the TGI (SF-268 CNS) is reported as > 100 µM. The TGI (NCI-H460 lung) was > 100 µM, the TGI (NCI-H522 lung) was > 100 µM and the TGI (U251 CNS) was > 100 µM. For the same compound, the TGI (MDA-MB-231 breast) was 51.4 µM, the TGI (ACHN renal) was > 100 µM and the TGI (T-47D breast) was > 100 µM. The TGI (K-562 leukemia) was > 100 µM, the TGI (A549 NSCLC) was > 100 µM and the TGI (HCC-2998 colon) was > 100 µM. The TGI (MALME-3M melanoma) was > 100 µM, the TGI (DU-145 prostate) was > 100 µM and the TGI (SNB-19 CNS) was > 100 µM. The TGI (TK-10 renal) was 67.5 µM, the TGI (HL-60(TB) leukemia) was > 100 µM and the TGI (EKVX NSCLC) was > 100 µM. For the same compound, the TGI (HCT-116 colon) was > 100 µM, the TGI (UACC-257 melanoma) was > 100 µM and the TGI (HS 578T breast) was > 100 µM. For the same compound, the TGI (PC-3 prostate) was > 100 µM, the TGI (SR leukemia) was > 100 µM and the TGI (NCI-H23 lung) was > 100 µM. For the same compound, the TGI (HT29 colon) was > 100 µM, the TGI (SN12C renal) was > 100 µM and the TGI (HOP-62 NSCLC) was > 100 µM. The TGI (COLO 205 colon) was > 100 µM, the TGI (SF-539 CNS) was > 100 µM and the TGI (SF-295 CNS) was > 100 µM. For the same compound, the TGI (SK-MEL-2 melanoma) was > 100 µM, the TGI (CCRF-CEM leukemia) was > 100 µM and the TGI (OVCAR-8 ovarian) was > 100 µM. The TGI (OVCAR-5 ovarian) was > 100 µM, the TGI (RPMI-8226 leukemia) was > 100 µM and the TGI (OVCAR-4 ovarian) was > 100 µM. The TGI (MCF7 breast) was > 100 µM, the TGI (MOLT-4 leukemia) was > 100 µM and the TGI (MDA-N) was > 100 µM. For the same compound, the TGI (KM12 colon) was 64.5 µM, the TGI (IGROV1 ovarian) was > 100 µM and the TGI (UO-31 renal) was 70.2 µM. For the same compound, the TGI (HOP-92 NSCLC) was 62.4 µM, the TGI (NCI-H226 lung) was > 100 µM and the TGI (HCT-15 colon) was > 100 µM. The TGI (SK-OV-3 ovarian) was > 100 µM, the TGI (M14 melanoma) was > 100 µM and the TGI (BT-549 breast) was > 100 µM. The TGI (SK-MEL-5 melanoma) was > 100 µM, the TGI (786-0 renal) was > 100 µM and the TGI (SNB-75 CNS) was > 100 µM. For the same compound, the TGI (RXF 393 renal) was 72.3 µM, the TGI (MDA-MB-435) was > 100 µM and the TGI (SK-MEL-28 melanoma) was > 100 µM. For the same compound, the TGI (OVCAR-3 ovarian) was > 100 µM, the TGI (NCI/ADR-RES ovarian) was > 100 µM and the TGI (UACC-62 melanoma) was > 100 µM.
With `COC(=O)[C@@H]1[C@H](O)CC[C@H]2[C@@]1(C)CC[C@@H](C)[C@]2(COC(C)=O)CC(=O)c1ccoc1` the TGI (SW-620 colon) was > 50 µM, the TGI (LOX IMVI melanoma) was > 50 µM and the TGI (SF-268 CNS) was > 50 µM. For the same compound, the TGI (NCI-H460 lung) was > 50 µM, the TGI (NCI-H522 lung) was > 50 µM and the TGI (U251 CNS) was > 50 µM. The TGI (MDA-MB-231 breast) was > 50 µM, the TGI (ACHN renal) was > 50 µM and the TGI (T-47D breast) was > 50 µM. The TGI (A549 NSCLC) was > 50 µM, the TGI (DU-145 prostate) was > 50 µM and the TGI (SNB-19 CNS) was > 50 µM. For the same compound, the TGI (TK-10 renal) was > 50 µM, the TGI (HL-60(TB) leukemia) was > 50 µM and the TGI (EKVX NSCLC) was > 50 µM. For the same compound, the TGI (HCT-116 colon) was > 50 µM, the TGI (UACC-257 melanoma) was > 50 µM and the TGI (HS 578T breast) was > 50 µM. The TGI (PC-3 prostate) was > 50 µM, the TGI (SR leukemia) was > 50 µM and the TGI (NCI-H23 lung) was > 50 µM. For the same compound, the TGI (HT29 colon) was > 50 µM, the TGI (SN12C renal) was > 50 µM and the TGI (COLO 205 colon) was > 50 µM. The TGI (SF-539 CNS) was > 50 µM, the TGI (CAKI-1 renal) was > 50 µM and the TGI (SF-295 CNS) was > 50 µM. The TGI (A498 renal) was > 50 µM, the TGI (SK-MEL-2 melanoma) was > 50 µM and the TGI (CCRF-CEM leukemia) was > 50 µM. The TGI (OVCAR-8 ovarian) was > 50 µM, the TGI (OVCAR-5 ovarian) was > 50 µM and the TGI (RPMI-8226 leukemia) was > 50 µM. For the same compound, the TGI (OVCAR-4 ovarian) was > 50 µM, the TGI (MCF7 breast) was > 50 µM and the TGI (MOLT-4 leukemia) was > 50 µM. The TGI (MDA-N) was > 50 µM, the TGI (KM12 colon) was > 50 µM and the TGI (IGROV1 ovarian) was > 50 µM. For the same compound, the TGI (UO-31 renal) was > 50 µM, the TGI (HOP-92 NSCLC) was > 50 µM and the TGI (NCI-H226 lung) was > 50 µM. The TGI (HCT-15 colon) was > 50 µM, the TGI (SK-OV-3 ovarian) was > 50 µM and the TGI (M14 melanoma) was > 50 µM. For the same compound, the TGI (BT-549 breast) was > 50 µM, the TGI (SK-MEL-5 melanoma) was > 50 µM and the TGI (786-0 renal) was > 50 µM. For the same compound, the TGI (SNB-75 CNS) was > 50 µM, the TGI (RXF 393 renal) was > 50 µM and the TGI (MDA-MB-435) was > 50 µM. For the same compound, the TGI (SK-MEL-28 melanoma) was > 50 µM, the TGI (OVCAR-3 ovarian) was > 50 µM and the TGI (NCI/ADR-RES ovarian) was > 50 µM. The TGI (UACC-62 melanoma) was > 50 µM.
